From ChEMBL document CHEMBL3994640, “Klyflaccisteroids K-M, bioactive steroidal derivatives from a soft coral Klyxum flaccidum” (Bioorg Med Chem Lett, 2017)

Assays:
Neutrophil [1] = assay: Anti-inflammatory activity in human neutrophils assessed as inhibition of fMLP/CB-induced elastase release preincubated for 5 mins followed by fMLP/CB stimulation for 10 mins using MeO-Suc-Ala-Ala-Pro-Val-p-nitroanilide as substrate; type: functional, cell-based
Neutrophil [2] = assay: (§1) Anti-inflammatory activity in human neutrophils assessed as inhibition of fMLP/CB-induced superoxide anion generation preincubated for 5 mins followed by cytochalasin B addition for 3 mins and fMLP for 10 mins by superoxide dismutase inhibitable reduction of ferricytochrome c based assay; type: functional, cell-based
K562 = assay: Cytotoxicity against human K562 cells after 72 hrs by alamar blue assay; type: functional, cell-based; conditions: K562, 72 h
Neutrophil [3] = assay: as §1, with “generation at 10 uM” for “generation”, “assay relative to control” for “assay”; type: functional
HT-29 = assay: Cytotoxicity against human HT-29 cells after 72 hrs by alamar blue assay; type: functional, cell-based; conditions: HT-29, 72 h
DLD-1 = assay: Cytotoxicity against human DLD1 cells after 72 hrs by alamar blue assay; type: functional, cell-based; conditions: DLD-1, 72 h
Neutrophil [4] = assay: Anti-inflammatory activity in human neutrophils assessed as inhibition of fMLP/CB-induced elastase release at 10 uM preincubated for 5 mins followed by fMLP/CB stimulation for 10 mins using MeO-Suc-Ala-Ala-Pro-Val-p-nitroanilide as substrate; type: functional
A549 = assay: Cytotoxicity against human A549 cells after 72 hrs by alamar blue assay; type: functional, cell-based; conditions: A549, 72 h
P388 = assay: Cytotoxicity against mouse P388 cells after 72 hrs by alamar blue assay; type: functional, cell-based; conditions: P388, 72 h

| IC50 (Neutrophil [1]) [µM] | IC50 (Neutrophil [2]) [µM] | SMILES | IC50 (K562) [µM] | inhibition at 10 µM (Neutrophil [3]) [%] | IC50 (HT-29) [µM] | IC50 (DLD-1) [µM] | inhibition at 10 µM (Neutrophil [4]) [%] | IC50 (A549) [µM] | IC50 (P388) [µM] |
| --- | --- | --- | --- | --- | --- | --- | --- | --- | --- |
| 5.84 | > 10 | CC(C)[C@@H](C)C[C@H](O)[C@@H](C)[C@H]1CC[C@H]2[C@@H]3[C@@H](O)C=C4C[C@@H](O)CC[C@]4(C)[C@H]3CC[C@]12C | > 40 | 12.6 | 36.7 | > 40 | 79.2 | > 40 | 31.8 |
| > 10 | > 10 | CC(C)[C@@H](C)[C@@]1(C)C[C@@H]1[C@@H](C)[C@H]1CC[C@H]2[C@@H]3[C@H](O)C=C4C[C@@H](O)CC[C@]4(C)[C@@]3(O)OC[C@]12C | > 40 | 1.21 | > 40 | > 40 | 25.2 | > 40 | > 40 |
| – | – | COc1cccc2c1C(=O)c1c(O)c3c(c(O)c1C2=O)C[C@@](O)(C(=O)CO)C[C@@H]3O[C@H]1C[C@H](N)[C@H](O)[C@H](C)O1 [DOXORUBICIN] | – | – | 0.87 | – | – | – | – |

| SMILES | IC50 (Neutrophil [1]) [µM] | IC50 (Neutrophil [2]) [µM] | IC50 (K562) [µM] | inhibition at 10 µM (Neutrophil [3]) [%] | IC50 (HT-29) [µM] | IC50 (DLD-1) [µM] | inhibition at 10 µM (Neutrophil [4]) [%] | IC50 (A549) [µM] | IC50 (P388) [µM] |
| --- | --- | --- | --- | --- | --- | --- | --- | --- | --- |
| CC(C)[C@@H](C)[C@@]1(C)C[C@@H]1[C@@H](C)[C@H]1CC[C@@H]([C@@]23C=C[C@]4(C[C@@H](O)CC[C@]4(C)C2=O)OO3)[C@]1(C)CCO | 1.55 | 5.83 | 22.5 | 67 | 27.5 | 27.5 | 111 | 15.8 | > 40 |
